Test results as given in patent publication US8735414B2 (priority 2009, dated 2014).

Key:
[1] = tested on: bicistronic HCV replicon (replicon RNA, GenBank Accession No. AJ242654); experiment: HCV Replicon Assay; type: cell-based; conditions: Hepatitis C virus, 72 h, read-out: Replicon IC50

Row | SMILES | IC50 [1] | melting point
1 | Cc1cc2c(cc1F)c(C(=O)N(C)C)c(-c1ccc(S(=O)(=O)N[C@@H](C)C(F)(F)F)cn1)n2C1CCCC1 [compound 783, 1-cyclopentyl-5-fluoro-N,N,6-trimethyl-2-(5-{[(2S)-1,1,1-trifluoropropan-2-yl]sulfamoyl}pyridin-2-yl)-1H-indole-3-carboxamide] | 2000 to 5000 nM | 278 to 280 °C
2 | C[C@H](NS(=O)(=O)c1ccc(-c2c(C#N)c3cc(Cl)ccc3n2-c2ccccn2)nc1)C1CC1 [compound 490, 6-[5-chloro-3-cyano-1-(pyridin-2-yl)-1H-indol-2-yl]-N-[(1S)-1-cyclopropylethyl]pyridine-3-sulfonamide] | 2000 to 5000 nM | 136 to 139 °C
3 | Cc1cc2c(cc1F)c(C#N)c(-c1ccc(S(=O)(=O)N[C@@H](C)C(F)(F)F)cn1)n2-c1ccc(Cl)s1 [compound 1032, 6-[1-(5-chlorothiophen-2-yl)-3-cyano-5-fluoro-6-methyl-1H-indol-2-yl]-N-[(2S)-1,1,1-trifluoropropan-2-yl]pyridine-3-sulfonamide] | < 500 nM | 244.8 to 247.4 °C
4 | CC(C)Oc1ccc2c(C#N)c(-c3ccc(NS(C)(=O)=O)nn3)n(C3CCC3)c2c1 [compound 275, N-{6-[3-cyano-1-cyclobutyl-6-(propan-2-yloxy)-1H-indol-2-yl]pyridazin-3-yl}methanesulfonamide] | 2000 to 5000 nM | 225 to 227 °C
5 | CC(NS(=O)(=O)c1ccc(-c2c(C#N)c3ccc(C4CC4)cc3n2C2CCCC2)nc1)C(F)(F)F (centres unmarked) [compound 86, 6-(3-cyano-1-cyclopentyl-6-cyclopropyl-1H-indol-2-yl)-N-(1,1,1-trifluoropropan-2-yl)pyridine-3-sulfonamide] | < 500 nM | 166 to 170 °C
6 | C[C@H](NS(=O)(=O)c1ccc(-c2c(C#N)c3cc(O)c(OC(F)F)cc3n2C2CCC2)nc1)C(F)(F)F [compound 674, 6-[3-cyano-1-cyclobutyl-6-(difluoromethoxy)-5-hydroxy-1H-indol-2-yl]-N-[(2S)-1,1,1-trifluoropropan-2-yl]pyridine-3-sulfonamide] | < 500 nM | 174 to 177 °C
7 | Cc1ccc2c(c1F)c(C#N)c(-c1ccc(S(=O)(=O)N[C@@H](C)C(F)(F)F)cn1)n2C1CCCC1 [compound 615, 6-(3-cyano-1-cyclopentyl-4-fluoro-5-methyl-1H-indol-2-yl)-N-[(2S)-1,1,1-trifluoropropan-2-yl]pyridine-3-sulfonamide] | < 500 nM | 186 to 197 °C
8 | C[C@H](NS(=O)(=O)c1ccc(-c2c(C#N)c3ccc(CC(F)F)cc3n2C2CCCC2)nc1)C(F)(F)F [compound 595, 6-[3-cyano-1-cyclopentyl-6-(2,2-difluoroethyl)-1H-indol-2-yl]-N-[(2S)-1,1,1-trifluoropropan-2-yl]pyridine-3-sulfonamide] | < 500 nM | 181 to 189 °C
9 | C[C@H](NS(=O)(=O)c1ccc(-c2c(C#N)c3ccc(OC(F)F)cc3n2C2CCCC2)nc1)C(F)(F)F [compound 589, 6-[3-cyano-1-cyclopentyl-6-(difluoromethoxy)-1H-indol-2-yl]-N-[(2S)-1,1,1-trifluoropropan-2-yl]pyridine-3-sulfonamide] | < 500 nM | 188 to 194 °C
10 | N#Cc1c(-c2ccc(S(=O)(=O)NC3(C(F)(F)F)CC3)cn2)n(C2CCC2)c2cc(OC(F)F)c(F)cc12 [compound 808, 6-[3-cyano-1-cyclobutyl-6-(difluoromethoxy)-5-fluoro-1H-indol-2-yl]-N-[1-(trifluoromethyl)cyclopropyl]pyridine-3-sulfonamide] | < 500 nM | 169 to 171 °C
11 | C[C@H](NS(=O)(=O)c1ccc(-c2c(C#N)c3ccc(C(F)(F)F)cc3n2-c2ncccn2)nc1)C(F)(F)F [compound 950, 6-[3-cyano-1-(pyrimidin-2-yl)-6-(trifluoromethyl)-1H-indol-2-yl]-N-[(2S)-1,1,1-trifluoropropan-2-yl]pyridine-3-sulfonamide] | < 500 nM | 206 to 210 °C
12 | N#Cc1c(-c2ccc(S(=O)(=O)NC3(C(F)(F)F)CC3)cn2)n(C2CCC2)c2ccc(F)cc12 [compound 329, 6-(3-cyano-1-cyclobutyl-5-fluoro-1H-indol-2-yl)-N-[1-(trifluoromethyl)cyclopropyl]pyridine-3-sulfonamide] | < 500 nM | 176 to 183 °C
13 | C[C@H](NS(=O)(=O)c1ccc(-c2c(C#N)c3ccc(CF)cc3n2C2CCC2)nc1)C(F)(F)F [compound 362, 6-[3-cyano-1-cyclobutyl-6-(fluoromethyl)-1H-indol-2-yl]-N-[(2S)-1,1,1-trifluoropropan-2-yl]pyridine-3-sulfonamide] | < 500 nM | 205 to 209 °C
14 | NC(=O)c1c(-c2ccc(S(=O)(=O)NC(CF)CF)cn2)n(C2CCC2)c2cc(OC(F)F)ccc12 [compound 581, 1-cyclobutyl-6-(difluoromethoxy)-2-{5-[(1,3-difluoropropan-2-yl)sulfamoyl]pyridin-2-yl}-1H-indole-3-carboxamide] | < 500 nM | 211 to 213 °C
15 | N#Cc1c(-c2ccc(S(=O)(=O)NC(CF)CF)cn2)n(CC2CC2)c2cc(OC(F)(F)F)ccc12 [compound 68, 6-[3-cyano-1-(cyclopropylmethyl)-6-(trifluoromethoxy)-1H-indol-2-yl]-N-(1,3-difluoropropan-2-yl)pyridine-3-sulfonamide] | < 500 nM | 132 to 133 °C
16 | COc1cc2c(C#N)c(-c3ccc(S(=O)(=O)N[C@@H](C)C(F)(F)F)cn3)n(C3CCCC3)c2cc1C [compound 669, 6-(3-cyano-1-cyclopentyl-5-methoxy-6-methyl-1H-indol-2-yl)-N-[(2S)-1,1,1-trifluoropropan-2-yl]pyridine-3-sulfonamide] | < 500 nM | 211 to 211.5 °C
17 | CC(=O)c1sccc1-n1c(-c2ccc(S(=O)(=O)N[C@@H](C)C(F)(F)F)cn2)c(C#N)c2cc(F)c(C)cc21 [compound 1055, 6-[1-(2-acetylthiophen-3-yl)-3-cyano-5-fluoro-6-methyl-1H-indol-2-yl]-N-[(2S)-1,1,1-trifluoropropan-2-yl]pyridine-3-sulfonamide] | 500 to 2000 nM | 208.7 to 212.4 °C
18 | N#Cc1c(-c2ccc(S(=O)(=O)NC(CF)CF)cn2)n(C2CCC2)c2cc(Cl)ccc12 [compound 37, 6-(6-chloro-3-cyano-1-cyclobutyl-1H-indol-2-yl)-N-(1,3-difluoropropan-2-yl)pyridine-3-sulfonamide] | < 500 nM | 200 to 202 °C
19 | C[C@H](NS(=O)(=O)c1ccc(-c2c(C(N)=O)c3cc(F)ccc3n2C2CCC2)nc1)C(F)(F)F [compound 997, 1-cyclobutyl-5-fluoro-2-(5-{[(2S)-1,1,1-trifluoropropan-2-yl]sulfamoyl}pyridin-2-yl)-1H-indole-3-carboxamide] | < 500 nM | 224 to 227 °C
20 | Cc1cc2c(cc1F)c(C#N)c(-c1ccc(S(=O)(=O)NC(C)(C)C)cn1)n2C1CCC1 [compound 651, N-tert-butyl-6-(3-cyano-1-cyclobutyl-5-fluoro-6-methyl-1H-indol-2-yl)pyridine-3-sulfonamide] | < 500 nM | 223 to 228 °C
21 | Cc1ccc2c(c1)c(C#N)c(-c1ccc(S(=O)(=O)N[C@@H](C)C(F)(F)F)cn1)n2-c1ncccn1 [compound 843, 6-[3-cyano-5-methyl-1-(pyrimidin-2-yl)-1H-indol-2-yl]-N-[(2S)-1,1,1-trifluoropropan-2-yl]pyridine-3-sulfonamide] | < 500 nM | 174 to 179 °C
22 | N#Cc1c(-c2ccc(S(=O)(=O)NC(CF)CF)cn2)n(C2CCCC2)c2cc(F)ccc12 [compound 307, 6-(3-cyano-1-cyclopentyl-6-fluoro-1H-indol-2-yl)-N-(1,3-difluoropropan-2-yl)pyridine-3-sulfonamide] | < 500 nM | 166 to 168 °C
23 | Cc1cc2c(cc1F)c(C#N)c(-c1ccc(S(=O)(=O)N[C@@H](C)C(F)(F)F)cn1)n2-c1ncc(Cl)cn1 [compound 914, 6-[1-(5-chloropyrimidin-2-yl)-3-cyano-5-fluoro-6-methyl-1H-indol-2-yl]-N-[(2S)-1,1,1-trifluoropropan-2-yl]pyridine-3-sulfonamide] | < 500 nM | 213 to 218 °C
24 | CC(C)(C)NS(=O)(=O)c1ccc(-c2c(C#N)c3cc(F)ccc3n2C2CCC2)nc1 [compound 9, N-tert-butyl-6-(3-cyano-1-cyclobutyl-5-fluoro-1H-indol-2-yl)pyridine-3-sulfonamide] | < 500 nM | 181 to 185 °C
25 | Cc1cc2c(cc1F)c(C(N)=O)c(-c1ccc(S(=O)(=O)N[C@H](C)C(F)(F)F)cn1)n2C1CCOCC1 [compound 767, 5-fluoro-6-methyl-1-(tetrahydro-2H-pyran-4-yl)-2-(5-{[(2R)-1,1,1-trifluoropropan-2-yl]sulfamoyl}pyridin-2-yl)-1H-indole-3-carboxamide] | < 500 nM | 258 to 262 °C
26 | N#Cc1c(-c2ncc(S(=O)(=O)NC(CF)CF)cn2)n(C2CCC2)c2cc(Cl)c(F)cc12 [compound 149, 2-(6-chloro-3-cyano-1-cyclobutyl-5-fluoro-1H-indol-2-yl)-N-(1,3-difluoropropan-2-yl)pyrimidine-5-sulfonamide] | < 500 nM | > 245 °C (dec.)
27 | C[C@H](NS(=O)(=O)c1ccc(-c2c(C#N)c3ccc(OC(F)F)cc3n2-c2ccccn2)nc1)C(F)(F)F [compound 387, 6-[3-cyano-6-(difluoromethoxy)-1-(pyridin-2-yl)-1H-indol-2-yl]-N-[(2S)-1,1,1-trifluoropropan-2-yl]pyridine-3-sulfonamide] | < 500 nM | 199 to 203 °C
28 | C[C@H](NS(=O)(=O)c1ccc(-c2c(C#N)c3ccc(C#N)cc3n2C2CCC2)nc1)C(F)(F)F [compound 467, 6-(3,6-dicyano-1-cyclobutyl-1H-indol-2-yl)-N-[(2S)-1,1,1-trifluoropropan-2-yl]pyridine-3-sulfonamide] | < 500 nM | 223 to 225 °C
